Data from patent US9234025B2, “Extracellular allosteric inhibitor binding domain from a tyrosine kinase receptor” (SANOFI, priority 2009, dated 2016).

Legend:
[1] = test system: human umbilical vein endothelial cells (HUVECs); assay: I125-FGF2 binding assay on HUVECs; conditions: intact cells, SSR even at high μM concentrations
FGFR2 = target: T1, FGFR2 (Homo sapiens, UniProt P21802); assay: FGF ligand binding to FGFR2 in intact cells; conditions: receptor expressed in intact cells
T1 construct: or the expression of the entire intact receptor in its native environment

B9-FGFR3TD cell line = assay: B9 myeloma cell proliferation, FGFR3TD (K650E); type: cell-based; conditions: constitutively activated FGFR3 K650E
Method: Cell proliferation was analysed on exponentially growing cells that were starved for 16 hours in IMDM (Invitrogen, 31980048), 0.2% FBS, 2 mM glutamine containing medium and seeded at 4,000 cells/well in 96-well microplates. After exposure to mitogens and/or SSR for 72 hours, cell proliferation was assessed with the use of the CellTiter 96 AQueous One Solution Cell Proliferation Assay (Promega, Madison, Wis., USA) according to manufacturer's instructions.
For studying SSR effect on FGFR3, the proliferation of B9-myeloma cells, expressing either FGFR3WT or FGFR3TD (a constitutively activated FGFR3 variant induced by the K650E mutation, even in the absence of any ligand; Truedel et al; blood 2006), was assayed by stimulation with FGF1 (25 ng/ml).

[2] = target: T2, TNF-R1 extracellular protein (Homo sapiens, UniProt P19438); assay: STD-NMR binding assay, TNF-R1 control; conditions: STD-NMR specificity control
T2 construct: made in house

FGFR2^∂23-Y328D [3] = assay: FGF2-induced ERK1/2 phosphorylation in HEK293 cells, FGFR2 Y328D; type: cell-based, human; conditions: Erk1/2 western blot densitometry IC50
Method: (§1) HEK293 cells were either transiently of stably transfected (using FuGENE 6, Roche) with hFGFR2IIIca or hFGFR2IIIca-Y328D cloned in pcDNA3 (Invitrogen). Stably transfected cells were grown in G418 (400 μg/ml) containing medium. Before stimulation, the cells were starved overnight in DMEM (0% serum), and pre-incubated with […] at the required concentration. The cells were subsequently stimulated with FGF2 (concentration between 0.5-10 ng/ml) for 5 min at 37° C. with or without SSR or SU5402 at 1 μM. After washing with ice-cold phosphate-buffered saline containing phosphatase inhibitors (Roche), cells were lysed in RIPA buffer (Tris 30 mM HCl pH 7.5, 150 mM NaCl, 1 mM EDTA, 1% triton-X, 0.5% w/v deoxycholate, containing phophatase and protease inhibitors as described by the manufacturer (Roche)). Cell lysates were centrifuged at 12,000 g for 10 min, and the supernatants were collected. Proteins were separated on Novex polyacrylamide gels (Invitrogen, Carlsbad, Calif.) and subsequently transferred onto Hybond ECL nitrocellulose membranes (Amersham Pharmacia). Following incubation with 5% non-fat milk powder in PBS, the membranes were incubated overnight at 4° C. with the following antibodies: phospho-ERK1/2 (CST:9101), phospho-FRS2 (CST:3861), phospho-PLCγ (CST:2821) and FGFR2 (F0300, Sigma).

FGFR2^∂23-Y328D [4] = target: FGFR2^∂23-Y328D (Homo sapiens, UniProt P21802, Y328D); assay: as above; type: cell-based; design: stably transfected HEK293 cells with full length FGFR2-WT or -Y328D; expressed in transfected cells; host or cells: HEK293; conditions: stable HEK293 FGFR2 Y328D cells; FGF2 0.5 ng/ml 5 min; average±sem, three experiments; read-out: IC50 value, inhibition of FGF2 induced ERK1/2 phosphorylation
Method: as §1

T2 sequence (P19438 30-211 limits assumed): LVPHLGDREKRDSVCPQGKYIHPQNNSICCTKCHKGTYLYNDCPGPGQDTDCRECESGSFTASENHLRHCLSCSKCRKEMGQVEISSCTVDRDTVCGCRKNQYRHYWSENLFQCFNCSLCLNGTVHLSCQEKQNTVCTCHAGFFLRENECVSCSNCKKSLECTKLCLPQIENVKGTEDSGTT
Sequence of FGFR2^∂23-Y328D (Homo sapiens, UniProt P21802, Y328D) (P21802 22-821 Y328D): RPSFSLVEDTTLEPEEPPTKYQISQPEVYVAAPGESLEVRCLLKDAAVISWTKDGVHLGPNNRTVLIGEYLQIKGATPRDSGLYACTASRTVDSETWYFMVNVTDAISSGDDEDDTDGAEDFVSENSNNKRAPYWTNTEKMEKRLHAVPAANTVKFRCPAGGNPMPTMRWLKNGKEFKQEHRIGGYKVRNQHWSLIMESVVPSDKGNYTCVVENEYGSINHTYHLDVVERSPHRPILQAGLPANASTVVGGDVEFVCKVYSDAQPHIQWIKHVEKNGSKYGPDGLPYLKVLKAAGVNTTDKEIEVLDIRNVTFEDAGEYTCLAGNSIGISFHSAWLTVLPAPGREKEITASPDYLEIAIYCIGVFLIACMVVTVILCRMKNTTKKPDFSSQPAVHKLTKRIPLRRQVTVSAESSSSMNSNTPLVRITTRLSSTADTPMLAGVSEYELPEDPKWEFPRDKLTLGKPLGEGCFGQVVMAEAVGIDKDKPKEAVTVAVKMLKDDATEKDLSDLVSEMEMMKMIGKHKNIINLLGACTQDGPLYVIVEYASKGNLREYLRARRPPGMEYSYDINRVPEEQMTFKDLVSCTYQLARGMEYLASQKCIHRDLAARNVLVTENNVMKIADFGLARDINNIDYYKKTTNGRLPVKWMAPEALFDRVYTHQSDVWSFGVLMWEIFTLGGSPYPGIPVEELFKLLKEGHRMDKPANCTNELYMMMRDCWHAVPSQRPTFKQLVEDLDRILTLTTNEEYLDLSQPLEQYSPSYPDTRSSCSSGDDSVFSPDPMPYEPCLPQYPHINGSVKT
T1 sequence (P21802 22-821): as the sequence (P21802 22-821 Y328D) above, with D307Y counted along it

Compound: COc1c(C)c(C(=O)c2ccc(N)c(C(=O)[O-])c2)n2ccccc12.[Na+] [SSR]
- inhibition of I^125-FGF2 binding to its receptor [1]: unable to inhibit I^125-FGF2 binding
- binding of FGF2 or FGF4 to FGFR2 (FGFR2): failed to antagonize
- proliferation of B9-FGFR3TD cells (B9-FGFR3TD cell line): insensitve
- binding to TNF-R1 extracellular protein [2]: no binding is observed
- sensitivity to SSR inhibition, FGFR2-Y328D compared to FGFR2-WT (FGFR2^∂23-Y328D [3]): about 5 times less sensitive
- IC50 (FGFR2^∂23-Y328D [4]): 121 ± 30 nM
